Test systems include SF-268 CNS; SF-539 CNS; OVCAR-3 ovarian; KM20L2 colon; K-562 leukemia; HOP-92 NSCLC; 786-0 renal; OVCAR-4 ovarian; MCF7 breast.
Common to all, as to assay: NCI-60 cell line screen, 48 h

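Growth conditions: 96-well plates. Treatment: test compound, 48 hours, 5 concentrations. Analysis: linear interpolation between bracketing concentrations; unreached endpoints set to highest concentration. GI50 is the concentration that inhibits growth by half. At the TGI there is no net growth.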 Where only a bound is given, the exact number is not on record here.

With `C=C1Oc2nc3ccccc3c(=O)n2C1(C)C`, the TGI in the test on SF-268 CNS is above 100 µM; with SF-539 CNS, above 100 µM; with OVCAR-3 ovarian it was above 10 µM; in the test on KM20L2 colon, above 100 µM; with K-562 leukemia, above 100 µM; in the test with HOP-92 NSCLC it was above 100 µM. Besides, the TGI in the test with 786-0 renal and in the test on OVCAR-4 ovarian was above 100 µM in each case.

As to `C#CCNC(=O)CC[C@]1(C)[C@H]2CC[C@@H]3[C@@H]([C@@](C)(O)CCC=C(C)C)CC[C@@]3(C)[C@]2(C)CC[C@H]1C(=C)C`, the GI50 is 24.7 µM in the test on MCF7 breast; 22 µM in the test on SF-268 CNS; 17.2 µM in the test with SF-539 CNS; 31.3 µM in the test on OVCAR-3 ovarian; 17.8 µM in the test on K-562 leukemia; 14.8 µM in the test on HOP-92 NSCLC. The GI50 in the test with 786-0 renal was 12.2 µM; in the test on OVCAR-4 ovarian, 43.6 µM. Also, the TGI is above 100 µM in the test on MCF7 breast; 57.1 µM in the test on SF-268 CNS; 31.1 µM with SF-539 CNS; 89.9 µM in the test on OVCAR-3 ovarian; 49.6 µM in the test with K-562 leukemia; 34.2 µM in the test on HOP-92 NSCLC. Besides, the TGI in the test on 786-0 renal was 30 µM; in the test with OVCAR-4 ovarian, above 100 µM.

For the molecule `CCOC(=O)c1c(C)n2c(=O)cc(C)c3c(OC(C)=O)c(OC(C)=O)cc1c32`, the GI50 in the test with MCF7 breast is 3.27 µM; in the test with SF-268 CNS, 5.26 µM; in the test on SF-539 CNS it was 4.24 µM; with OVCAR-3 ovarian it was 3.49 µM; in the test with K-562 leukemia, 3.86 µM; in the test on HOP-92 NSCLC, 4.78 µM. Moreover, the GI50 in the test with 786-0 renal was 3.75 µM; with OVCAR-4 ovarian, 3.29 µM. Moreover, the TGI was 14 µM in the test with MCF7 breast; above 74.1 µM in the test on SF-268 CNS; 21.1 µM in the test on SF-539 CNS; above 62.7 µM in the test on OVCAR-3 ovarian; above 37.9 µM with K-562 leukemia; 41.5 µM with HOP-92 NSCLC. The molecule also had a TGI in the test with OVCAR-4 ovarian above 33.7 µM.

Consider `O=c1c2ccccc2c(=O)c2c1cc(Cl)c1[nH]c3c([nH]c12)c(Cl)cc1c(=O)c2ccccc2c(=O)c13`, for which the TGI in the test with SF-268 CNS, with SF-539 CNS, in the test on OVCAR-3 ovarian, in the test with KM20L2 colon, in the test with K-562 leukemia and with 786-0 renal was above 100 µM each time. This molecule also showed a TGI in the test on OVCAR-4 ovarian above 100 µM.

As for `CC(=O)OC[C@]12CC[C@@H]([C@@H](C)C(N)=O)[C@@H]1[C@H]1CC[C@@H]3[C@@]4(C)CC[C@H](OC(C)=O)C(C)(C)[C@@H]4CC[C@@]3(C)[C@]1(C)CC2`, the GI50 in the test on MCF7 breast is 3.27 µM; in the test on SF-268 CNS, 6.95 µM; with SF-539 CNS it was 5.52 µM; in the test on OVCAR-3 ovarian it was 3.95 µM; with K-562 leukemia it was 4.09 µM; in the test on HOP-92 NSCLC, 5.21 µM. Also, the GI50 in the test on 786-0 renal is 10.9 µM; in the test on OVCAR-4 ovarian, 4.72 µM. For the same molecule, the TGI is 12.4 µM in the test on MCF7 breast; 22.3 µM in the test on SF-268 CNS; 17.7 µM in the test with SF-539 CNS; 13.3 µM with OVCAR-3 ovarian; 35.7 µM in the test with K-562 leukemia; 19.4 µM in the test with HOP-92 NSCLC. The results for the TGI in the test on 786-0 renal and in the test on OVCAR-4 ovarian were 26.3 µM and 18.5 µM, respectively.

For `COc1ccc(C2=C(c3cc(OC)c(OC)c(OC)c3)C(=O)CC2)cc1`, the GI50 with MCF7 breast is 0.0585 µM; in the test with SF-268 CNS, 0.668 µM; with SF-539 CNS, 0.189 µM; in the test on OVCAR-3 ovarian it was 0.0598 µM; in the test with K-562 leukemia, 0.0449 µM; with HOP-92 NSCLC, 1.68 µM. Also, the GI50 with 786-0 renal is 0.425 µM; in the test with OVCAR-4 ovarian it was 0.689 µM. Also, the TGI in the test on MCF7 breast was above 100 µM; in the test with SF-268 CNS, above 33.8 µM; with SF-539 CNS it was above 48.3 µM; in the test on OVCAR-3 ovarian, 0.242 µM; with K-562 leukemia, above 100 µM; with HOP-92 NSCLC, 54.1 µM. In addition, the TGI in the test with 786-0 renal and with OVCAR-4 ovarian was above 100 µM throughout.

Consider `O=C(O)C1c2ccccc2C(C(=O)O)c2ccccc21` (stereo unspecified), for which the TGI in the test on SF-268 CNS, in the test on SF-539 CNS, with KM20L2 colon, with K-562 leukemia, in the test on HOP-92 NSCLC and in the test with 786-0 renal was above 100 µM in each case. For the same molecule, the TGI in the test on OVCAR-4 ovarian is above 100 µM.

On to `CCC[CH2][Sn]([CH2]CCC)([O]C(=O)c1nccnc1N)[O]C(=O)c1nccnc1N`, for which the GI50 in the test with SF-268 CNS was 0.64 µM; in the test with SF-539 CNS it was 1.09 µM; in the test on OVCAR-3 ovarian it was 1.21 µM; in the test with KM20L2 colon, 1590 nM; with HOP-92 NSCLC it was 1.16 µM; in the test on 786-0 renal, 0.652 µM. Moreover, the GI50 with OVCAR-4 ovarian is 2.02 µM. The TGI was 1.97 µM in the test with SF-268 CNS; 2.3 µM in the test with SF-539 CNS; 2.45 µM with OVCAR-3 ovarian; 2.95 µM in the test on KM20L2 colon; 2.43 µM in the test with HOP-92 NSCLC; 1.91 µM in the test on 786-0 renal. In addition, the TGI in the test with OVCAR-4 ovarian was determined as 3.49 µM.

`CCCN(CCC)CCCNC(=O)c1cc2c(-c3ccc(OC)c(OC)c3)nn(C)c2s1`: the GI50 in the test on MCF7 breast is 18.2 µM; with SF-268 CNS it was 31.1 µM; in the test on SF-539 CNS, 16 µM; in the test with OVCAR-3 ovarian, 21.5 µM; with K-562 leukemia it was 21.5 µM; with HOP-92 NSCLC it was 6.15 µM. Moreover, the figures for the GI50 in the test with 786-0 renal and with OVCAR-4 ovarian were 17.9 µM and 23.5 µM, respectively. For the same molecule, the TGI in the test on MCF7 breast was 42.1 µM; in the test with SF-268 CNS it was above 100 µM; in the test on SF-539 CNS it was 31.1 µM; with OVCAR-3 ovarian, above 100 µM; with K-562 leukemia it was 66.2 µM; with HOP-92 NSCLC, 46.9 µM. For the same molecule, the results for the TGI in the test on 786-0 renal and in the test with OVCAR-4 ovarian were 91 µM and above 100 µM, respectively.

For the molecule `OC(COc1cccc2ccccc12)CN1CCN(c2ccccc2)CC1` (stereo unspecified), the GI50 in the test on MCF7 breast was 17.3 µM; in the test with SF-268 CNS, 16.4 µM; in the test with SF-539 CNS it was 18.1 µM; in the test on OVCAR-3 ovarian, 15.1 µM; in the test with K-562 leukemia it was 13.7 µM; in the test on HOP-92 NSCLC it was 4.86 µM. Also, the GI50 in the test on 786-0 renal is 17.4 µM; in the test on OVCAR-4 ovarian, 14.1 µM. The TGI in the test on MCF7 breast worked out at 31.9 µM; in the test on SF-268 CNS it was 31.3 µM; in the test with SF-539 CNS, 33.9 µM; in the test on OVCAR-3 ovarian, 28.8 µM; in the test on K-562 leukemia, 34 µM; in the test with HOP-92 NSCLC, 19 µM. In addition, the TGI in the test on 786-0 renal is 32.2 µM; in the test on OVCAR-4 ovarian it was 27.6 µM.

For the origin of these results see PubChem BioAssay (NCI).
